Where two headings read alike, the source gives them in different places.
Key:
[1] = tested on: velvetleaf; assay: Test A pre-/postemergence herbicide test; assay type: in vivo, Abutilon theophrasti; conditions: for pest or weed control at 125 g/ha / pest or weed control at 500 g/ha: Abutilon theophrasti, 240 h, read-out: Plant response rating, Velvetleaf; for Velvetleaf plant response rating: Preemergence, visual rating on 0 to 100 scale (0 no effect, 100 complete control)
Summary of the method: (§1)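 Approximately 10 days after treatment in the greenhouse, plants were compared with untreated controls and given a 0–100 visual injury rating. Applications: preemergence directed soil spray; postemergence on 2–10 cm plants at the one- to two-leaf stage.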

[2] = tested on: barnyardgrass; assay: Test C flooded paddy test; assay type: in vivo, Echinochloa crus-galli; conditions: Flood
Summary of the method: (§2)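 Visual ratings from 0, no effect, to 100, complete control, were made against untreated controls after 13–15 greenhouse days. Compounds had gone straight into paddy water 3 cm above the soil, kept at that depth, on 2-leaf-stage plants.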

[3] = tested on: morningglory; assay: Test A pre-/postemergence herbicide test; assay type: in vivo, Ipomoea spp.; conditions: for pest or weed control at 125 g/ha / pest or weed control at 500 g/ha: Ipomoea, 240 h, read-out: Plant response rating, Morningglory; for Morningglory plant response rating: Preemergence, visual rating on 0 to 100 scale (0 no effect, 100 complete control)
Summary of the method: as §1

[4] = tested on: sedge, umbrella; assay: Test C flooded paddy test; assay type: in vivo, Cyperus difformis; conditions: Flood
Summary of the method: as §2

[5] = tested on: ducksalad; assay: Test C flooded paddy test; assay type: in vivo, Heteranthera limosa; conditions: Flood
Summary of the method: as §2

[6] = tested on: chickweed; assay: Test C postemergence herbicide test; assay type: in vivo, Stellaria media; conditions: 250 g ai/ha, scale 0 to 100 (0 no effect, 100 complete control)
Description: At the same time, plants selected from these crop and weed species and also barley (winter barley, Hordeum vulgare), […]), chickweed (common chickweed, Stellaria media), deadnettle (henbit deadnettle, Lamium amplexicaule), and canarygrass (littleseed canarygrass, Phalaris minor) were planted in pots containing Redi-Earth® planting medium (Scotts Company, 14111 Scottslawn Road, Marysville, Ohio 43041) comprising spaghnum peat moss, vermiculite, wetting agent and starter nutrients and treated with postemergence applications of test chemicals formulated in the same manner. Plants ranged in height from 2 to 18 cm (1- to 4-leaf stage) for postemergence treatments. Treated plants and controls were maintained in a greenhouse for 13 to 15 days, after which time all species were compared to controls and visually evaluated. Plant response ratings, summarized in Table C, are based on a scale of 0 to 100 where 0 is no effect and 100 is complete control. A dash (-) response means no test result.

[7] = tested on: ryegrass, Italian; assay: Test A pre-/postemergence herbicide test; assay type: in vivo, Lolium multiflorum; conditions: for Plant response rating, Ryegrass, Italian: 125 g ai/ha
Summary of the method: as §1

[8] = tested on: kochia; assay: Test C pre-/postemergence herbicide test; assay type: in vivo, Kochia scoparia; conditions: Preemergence
Description: Seeds of plant species selected from blackgrass (Alopecurus myosuroides), ryegrass, Italian (Italian ryegrass, Lolium multiflorum), wheat (winter wheat, Triticum aestivum), galium (catchweed bedstraw, Galium aparine), corn (Zea mays), crabgrass, large (large crabgrass, Digitaria sanguinalis), foxtail, giant (giant foxtail, Setaria faberii), johnsongrass (Sorghum halepense), lambsquarters (Chenopodium album), morningglory (Ipomoea coccinea), nutsedge, yellow (yellow nutsedge, Cyperus esculentus), pigweed (Amaranthus retroflexus), ragweed (common ragweed, Ambrosia elatior), soybean (Glycine max), barnyardgrass (Echinochloa crus-galli), oilseed rape (Brassica napus), waterhemp (common waterhemp, Amaranthus rudis), kochia (Kochia scoparia), oat, wild (wild oat, Avena fatua), surinam grass (Brachiaria decumbens), foxtail, green (green foxtail, Setaria viridis), goosegrass (Eleusine indica), bromegrass, downy (downy bromegrass, Bromus tectorum), nightshade (eastern black nightshade, Solanum ptycanthum), cocklebur (common cocklebur, Xanthium strumarium), cupgrass, woolly (woolly cupgrass, Eriochloa villosa), bermudagrass (Cynodon dactylon), sunflower, (common oilseed sunflower, Helianthus annuus), Russian thistle (Salsola kali) and velvetleaf (Abutilon theophrasti) were planted into a blend of loam soil and sand and treated preemergence with test chemicals formulated in a non-phytotoxic solvent mixture which included a surfactant. At the same time, plants selected from these crop and weed species and also barley (winter barley, Hordeum vulgare), […]), chickweed (common chickweed, Stellaria media), deadnettle (henbit deadnettle, Lamium amplexicaule), and canarygrass (littleseed canarygrass, Phalaris minor) were planted in pots containing Redi-Earth® planting medium (Scotts Company, 14111 Scottslawn Road, Marysville, Ohio 43041) comprising spaghnum peat moss, vermiculite, wetting agent and starter nutrients and treated with postemergence applications of test chemicals formulated in the same manner. Plants ranged in height from 2 to 18 cm (1- to 4-leaf stage) for postemergence treatments. Treated plants and controls were maintained in a greenhouse for 13 to 15 days, after which time all species were compared to controls and visually evaluated. Plant response ratings, summarized in Table C, are based on a scale of 0 to 100 where 0 is no effect and 100 is complete control. A dash (-) response means no test result.

[9] = post-emergence, Postemergence, 125 g ai/ha, 0 to 100 scale, 0 no effect, 100 complete control
[10] = post-emergence, Postemergence, 500 g ai/ha, 0 to 100 scale (0 no effect, 100 complete control)
[11] = pre-emergence, preemergence, 500 g ai/ha, 0 to 100 scale
[12] = 31 g ai/ha, scale of 0 to 100 where 0 is no effect and 100 is complete control, 13 to 15 days
[13] = 62 g ai/ha, scale of 0 to 100 where 0 is no effect and 100 is complete control, 13 to 15 days
[14] = 125 g ai/ha, scale of 0 to 100 where 0 is no effect and 100 is complete control, 13 to 15 days
[15] = Postemergence, 125 g ai/ha, 0 to 100 scale, 0 no effect, 100 complete control
[16] = Postemergence, 500 g ai/ha, 0 to 100 scale (0 no effect, 100 complete control)
[17] = preemergence, 500 g ai/ha, 0 to 100 scale
[18] = 125 g ai/ha, scale 0 to 100 (0 no effect, 100 complete control)

O=C1NCC(c2ccccc2)C1(Br)C(=O)Nc1ccccc1F (stereo not shown) [Compound 93, 3-bromo-N-(2-fluorophenyl)-2-oxo-4-phenyl-3-pyrrolidinecarboxamide]
pest or weed control at 125 g/ha [1, 9]: 0%
pest or weed control at 500 g/ha [1, 10]: 0%
pest or weed control at 500 g/ha [1, 11]: 0%
Velvetleaf plant response rating ([1]; 125 g ai/ha): 0
Plant response rating, Barnyardgrass [2, 12]: 0
Plant response rating, Barnyardgrass [2, 13]: 0
Plant response rating, Barnyardgrass [2, 14]: 0
Plant response rating, Barnyardgrass ([2]; 250 g ai/ha, scale 0 to 100): 40
pest or weed control at 125 g/ha [3, 9]: 0%
pest or weed control at 500 g/ha [3, 10]: 0%
pest or weed control at 500 g/ha [3, 11]: 0%
Morningglory plant response rating ([3]; 125 g ai/ha): 0
Plant response rating, Sedge, Umbrella [4, 12]: 0
Plant response rating, Sedge, Umbrella [4, 13]: 0
Plant response rating, Sedge, Umbrella [4, 14]: 0
Plant response rating, Sedge, Umbrella ([4]; 250 g ai/ha, scale 0 to 100): 100
Plant response rating, Ducksalad [5, 12]: 0
Plant response rating, Ducksalad [5, 13]: 0
Plant response rating, Ducksalad [5, 14]: 0
Plant response rating, Ducksalad ([5]; 250 g ai/ha, scale 0 to 100): 85

O=C1NCC(c2ccc(F)c(C(F)(F)F)c2)C1C(=O)Nc1cccc(F)c1F (racemic) [Compound 77]
Plant response rating, Velvetleaf [1, 15]: 20
Plant response rating, Velvetleaf [1, 16]: 40
Velvetleaf plant response rating ([1]; 125 g ai/ha): 0
Plant response rating, Velvetleaf [1, 17]: 0
Plant response rating, Barnyardgrass ([2]; 250 g ai/ha, scale 0 to 100): 20
Plant response rating, Barnyardgrass ([2]; 500 g ai/ha, scale 0 to 100): 30
Plant response rating, Barnyardgrass ([2]; 1000 g ai/ha, scale 0 to 100): 40
Plant response rating, Barnyardgrass ([2]; 2000 g ai/ha, scale 0 to 100): 70
Plant response rating, Morningglory [3, 15]: 0
Plant response rating, Morningglory [3, 16]: 30
Morningglory plant response rating ([3]; 125 g ai/ha): 20
Plant response rating, Morningglory [3, 17]: 60
Plant response rating, Sedge, Umbrella ([4]; 250 g ai/ha, scale 0 to 100): 0
Plant response rating, Sedge, Umbrella ([4]; 500 g ai/ha, scale 0 to 100): 0
Plant response rating, Sedge, Umbrella ([4]; 1000 g ai/ha, scale 0 to 100): 20
Plant response rating, Sedge, Umbrella ([4]; 2000 g ai/ha, scale 0 to 100): 40
Plant response rating, Ducksalad ([5]; 250 g ai/ha, scale 0 to 100): 95
Plant response rating, Ducksalad ([5]; 500 g ai/ha, scale 0 to 100): 100
Plant response rating, Ducksalad ([5]; 1000 g ai/ha, scale 0 to 100): 100
Plant response rating, Ducksalad ([5]; 2000 g ai/ha, scale 0 to 100): 100

O=C1NCC(c2cccc(C(F)(F)F)c2)C1C(=O)Nc1ccc(F)c(F)c1F (stereo not shown) [Compound 345]
Plant response rating, Chickweed [6]: 30
Plant response rating, Ryegrass, Italian ([7]; Postemergence, visual rating on 0 to 100 scale (0 no effect, 100 complete control), approx. 10 days): 50
Plant response rating, Ryegrass, Italian ([7]; Preemergence, 0 to 100 scale where 0 is no effect and 100 is complete control): 0
Ryegrass, Italian plant response rating ([7]; Preemergence, 500 g ai/ha, visual rating on 0 to 100 scale (0 no effect, 100 complete control)): 40

O=C1NCC(Br)(c2ccccc2)C1C(=O)Nc1ccccc1F (stereo not shown) [Compound 92, 4-bromo-N-(2-fluorophenyl)-2-oxo-4-phenyl-3-pyrrolidinecarboxamide]
pest or weed control at 125 g/ha [1, 9]: 0%
pest or weed control at 500 g/ha [1, 10]: 0%
pest or weed control at 500 g/ha [1, 11]: 0%
Velvetleaf plant response rating ([1]; 125 g ai/ha): 0
Plant response rating, Barnyardgrass [2, 12]: 10
Plant response rating, Barnyardgrass [2, 13]: 10
Plant response rating, Barnyardgrass [2, 14]: 10
Plant response rating, Barnyardgrass ([2]; 250 g ai/ha, scale 0 to 100): 10
pest or weed control at 125 g/ha [3, 9]: 0%
pest or weed control at 500 g/ha [3, 10]: 0%
pest or weed control at 500 g/ha [3, 11]: 0%
Morningglory plant response rating ([3]; 125 g ai/ha): 0
Plant response rating, Sedge, Umbrella [4, 12]: 0
Plant response rating, Sedge, Umbrella [4, 13]: 0
Plant response rating, Sedge, Umbrella [4, 14]: 0
Plant response rating, Sedge, Umbrella ([4]; 250 g ai/ha, scale 0 to 100): 0
Plant response rating, Ducksalad [5, 12]: 0
Plant response rating, Ducksalad [5, 13]: 20
Plant response rating, Ducksalad [5, 14]: 20
Plant response rating, Ducksalad ([5]; 250 g ai/ha, scale 0 to 100): 70

O=C1NCCC1C(=O)N(c1ccc(F)c(F)c1)c1ccccc1F (stereo not shown) [Compound 5, N-(3,4-difluorophenyl)-N-(2-fluorophenyl)-2-oxo-3-pyrrolidinecarboxamide]
pest or weed control at 500 g/ha [1, 10]: 0%
pest or weed control at 500 g/ha [1, 11]: 0%
Velvetleaf plant response rating ([1]; 125 g ai/ha): 0
Plant response rating, Barnyardgrass [2, 13]: 0
Plant response rating, Barnyardgrass [2, 14]: 20
Plant response rating, Barnyardgrass ([2]; 250 g ai/ha, scale 0 to 100): 55
pest or weed control at 500 g/ha [3, 10]: 10%
pest or weed control at 500 g/ha [3, 11]: 0%
Morningglory plant response rating ([3]; 125 g ai/ha): 0
Plant response rating, Kochia ([8]; 62 g ai/ha, scale 0 to 100): 0
Plant response rating, Kochia [8, 18]: 0
Plant response rating, Sedge, Umbrella [4, 13]: 0
Plant response rating, Sedge, Umbrella [4, 14]: 0
Plant response rating, Sedge, Umbrella ([4]; 250 g ai/ha, scale 0 to 100): 0
Plant response rating, Ducksalad [5, 13]: 30
Plant response rating, Ducksalad [5, 14]: 70
Plant response rating, Ducksalad ([5]; 250 g ai/ha, scale 0 to 100): 80

O=C1NCC(c2ccc(Cl)c(Cl)c2)C1C(=O)Nc1ccccc1F (racemic) [Compound 14]
Plant response rating, Velvetleaf [1, 15]: 0
Plant response rating, Velvetleaf [1, 16]: 90
Velvetleaf plant response rating ([1]; 125 g ai/ha): 0
Plant response rating, Velvetleaf [1, 17]: 0
Plant response rating, Barnyardgrass [2, 13]: 0
Plant response rating, Barnyardgrass ([2]; 250 g ai/ha, scale 0 to 100): 0
Plant response rating, Morningglory [3, 15]: 0
Plant response rating, Morningglory [3, 16]: 0
Morningglory plant response rating ([3]; 125 g ai/ha): 0
Plant response rating, Morningglory [3, 17]: 0
Plant response rating, Kochia ([8]; 62 g ai/ha, scale 0 to 100): 0
Plant response rating, Kochia [8, 18]: 0
Plant response rating, Sedge, Umbrella [4, 13]: 0
Plant response rating, Sedge, Umbrella ([4]; 250 g ai/ha, scale 0 to 100): 20
Plant response rating, Ducksalad [5, 13]: 40
Plant response rating, Ducksalad ([5]; 250 g ai/ha, scale 0 to 100): 85

O=C1NCC(c2cccc(OC(F)(F)F)c2)C1C(=O)Nc1ccccc1F (stereo not shown) [Compound 69]
Plant response rating, Velvetleaf [1, 15]: 20
Plant response rating, Velvetleaf [1, 16]: 30
Velvetleaf plant response rating ([1]; 125 g ai/ha): 0
Plant response rating, Velvetleaf [1, 17]: 0
Plant response rating, Morningglory [3, 15]: 0
Plant response rating, Morningglory [3, 16]: 0
Morningglory plant response rating ([3]; 125 g ai/ha): 0
Plant response rating, Morningglory [3, 17]: 0
Kochia plant response rating ([8]; 31 g ai/ha, scale 0 to 100, 0 is no effect and 100 is complete control): 0
Plant response rating, Kochia ([8]; 62 g ai/ha, scale 0 to 100): 0
Plant response rating, Kochia [8, 18]: 0
Plant response rating (scale of 0 to 100), Kochia ([8]; 250 g ai/ha): 25

Source: patent US10294202B2, “Pyrrolidinones as herbicides” (FMC Corporation, priority 2013, dated 2019)
